Source: patent US20240226026A1, “BRANCHED TAIL LIPID COMPOUNDS AND COMPOSITIONS FOR INTRACELLULAR DELIVERY OF THERAPEUTIC AGENTS” (ModernaTX, Inc., priority 2021, published 2024)

Columns and labels:
[1] = Lipid nanoparticle surface hydrophobicity by Generalized Polarization by Laurdan (N-GP); format: physicochemical; settings: for LNP surface hydrophobicity (N-GP*): Table 2b, nanoparticles comprising the lipid; for Lipid nanoparticle surface hydrophobicity (N-GP*): Table 2a, Laurdan, higher N-GP indicates a less polar surface
Text: Surface hydrophobicity of nanoparticles of the disclosure can be measured by Generalized Polarization by Laurdan (GPL). In this method, Laurdan, a fluorescent aminonaphthalene ketone lipid, is post-inserted into the nanoparticle surface and the fluorescence spectrum of Laurdan is collected to determine the normalized Generalized Polarization (N-GP). In some embodiments, nanoparticles formulated with lipids of the disclosure have a surface hydrophobicity expressed as N-GP of between about 0.5 and about 1.5. For example, in some embodiments, nanoparticles formulated with lipids of the disclosure have a surface hydrophobicity expressed as N-GP of about 0.5, about 0.6, about 0.7, about 0.8, about 0.9, about 1.0, about 1.1, about 1.2, about 1.3, about 1.4, or about 1.5. In some embodiments, nanoparticles formulated with lipids of the disclosure have a surface hydrophobicity expressed as N-GP of about 1.0 or about 1.1.

[2] = Apparent pKa of lipid nanoparticles; format: physicochemical; settings: for Apparent pKa 95% CI: Table 2b, 95% confidence interval; for Apparent pKa: Table 2a, nanoparticles comprising the lipid
CD-1 mice = assay: Expression of hEPO induced by LNPs (mRNA encoding hEPO) administered to mice; format: in vivo; settings: Table 4a, serum, 6 h after intravenous injection; for Avg. hEPO Concentration (mIU/mL)* ± Avg. SD: ELLA Simple Plex Assay
Method: In some embodiments, hEPO concentrations were determined using an […] (ELLA) Simple Plex Assay (ProteinSimple) with a Human Erythroprotein cartridge. Standards for this assay are calibrated according to the 2. IRP WHO preparation. Nanoparticle compositions including mRNA are useful in the evaluation of the efficacy and usefulness of various formulations for the delivery of therapeutic and/or prophylactics. Higher levels of protein expression induced by administration of a composition including an mRNA will be indicative of higher mRNA translation and/or nanoparticle composition mRNA delivery efficiencies. As the non-RNA components are not thought to affect translational machineries themselves, a higher level of protein expression is likely indicative of a higher efficiency of delivery of the therapeutic and/or prophylactic by a given nanoparticle composition relative to other nanoparticle compositions or the absence thereof.
To assess potency of expression of lipids of the disclosure, the protein expression (hEPO) following administration of a nanoparticle comprising a lipid of the disclosure (e.g., a loaded LNP) to mice was measured.
Lipid nanoparticles (LNPs) including DSPC as a phospholipid, cholesterol as a structural lipid, PL-II (e.g., PEG-1) as a PEG lipid, a lipid according to Formula (I-1), (I), (I-A), (I-A1), (I-A2), (I-A3), or (I-A4), and an mRNA encoding hEPO were intravenously administered to CD-1 mice. The concentration of hEPO in serum was tested at 6 h after injection.

[3] = Encapsulation efficiency (% EE) of lipid nanoparticles; format: physicochemical; settings: nanoparticles comprising the lipid
Method: For nanoparticle compositions including an RNA, a QUANT-IT™ RIBOGREEN® RNA assay (Invitrogen Corporation Carlsbad, CA) can be used to evaluate the encapsulation of an RNA by the nanoparticle composition. The samples are diluted to a concentration of approximately 5 μg/mL in a TE buffer solution (10 mM Tris-HCl, 1 mM EDTA, pH 7.5). 50 μL of the diluted samples are transferred to a polystyrene 96 well plate and either 50 μL of TE buffer or 50 μL of a 2% Triton X-100 solution is added to the wells. The plate is incubated at a temperature of 37° C. for 15 minutes. The RIBOGREEN® reagent is diluted 1:100 in TE buffer, and 100 μL of this solution is added to each well. The fluorescence intensity can be measured using a fluorescence plate reader (Wallac Victor 1420 Multilablel Counter; Perkin Elmer, Waltham, MA) at an excitation wavelength of, for example, about 480 nm and an emission wavelength of, for example, about 520 nm. The fluorescence values of the reagent blank are subtracted from that of each of the samples and the percentage of free RNA is determined by dividing the fluorescence intensity of the intact sample (without addition of Triton X-100) by the fluorescence value of the disrupted sample (caused by the addition of Triton X-100).
The efficiency of encapsulation of a therapeutic and/or prophylactic describes the amount of therapeutic and/or prophylactic that is encapsulated or otherwise associated with a lipid nanoparticle (e.g., an empty LNP or a loaded LNP) after preparation, relative to the initial amount provided. The encapsulation efficiency is desired to be high (e.g., close to 100%). The encapsulation efficiency may be measured, for example, by comparing the amount of therapeutic and/or prophylactic in a solution containing a loaded LNP before and after breaking up the loaded LNP with one or more organic solvents or detergents. Fluorescence may be used to measure the amount of free therapeutic and/or prophylactic (e.g., RNA) in a solution. For the loaded LNPs formulated with lipids of the disclosure, the encapsulation efficiency of a therapeutic and/or prophylactic is at least 50%, for example 50%, 55%, 60%, 65%, 70%, 75%, 80%, 85%, 90%, 91%, 92%, 93%, 94%, 95%, 96%, 97%, 98%, 99%, or 100%. In some embodiments, the encapsulation efficiency is at least 80%. In some embodiments, the encapsulation efficiency is at least 90%. In some embodiments, the encapsulation efficiency of the therapeutic and/or prophylactic agent is between 80% and 100%.
(§1) Lipid nanoparticles (e.g., empty LNPs or loaded LNPs) including DSPC as a phospholipid, cholesterol as a structural lipid, PL-II (e.g., PEG-1) as a PEG lipid, and a lipid according to Formula (I-1), (I), (I-A), (I-A1), (I-A2), (I-A3), or (I-A4) were prepared. In some embodiments, the lipid nanoparticles further included rhodamine-DOPE as a fluorescent lipid. Tables 2a, 2b, and 3 summarize the characteristics of the formulations.

[4] = Particle size (diameter) and polydispersity index of lipid nanoparticles; format: physicochemical; settings: nanoparticles comprising the lipid
Method: A Zetasizer Nano ZS (Malvern Instruments Ltd, Malvern, Worcestershire, UK) can be used to determine the particle size, the polydispersity index (PDI) and the zeta potential of the nanoparticle compositions in 1×PBS in determining particle size and 15 mM PBS in determining zeta potential.
Lipid nanoparticles (e.g., empty LNPs or loaded LNPs) may be characterized by a variety of methods. For example, microscopy (e.g., transmission electron microscopy or scanning electron microscopy) may be used to examine the morphology and size distribution of a nanoparticle composition. Dynamic light scattering or potentiometry (e.g., potentiometric titrations) may be used to measure zeta potentials. Dynamic light scattering may also be utilized to determine particle sizes. Instruments such as the Zetasizer Nano ZS (Malvern Instruments Ltd, Malvern, Worcestershire, UK) may also be used to measure multiple characteristics of a nanoparticle composition, such as particle size, polydispersity index, and zeta potential.
as §1

[5] = Table 2a, DSPC, cholesterol, PEG lipid

| Compound | LNP surface hydrophobicity (N-GP*) [1] | Apparent pKa 95% CI [2] | % EE ([3]; Table 2b) | % EE ([3]; Table 3) | Diameter (nm) ([4]; Table 2b) | PDI ([4]; Table 2b) | Diameter (nm) ([4]; Table 3) | PDI ([4]; Table 3) | Lipid nanoparticle surface hydrophobicity (N-GP*) [1] | Apparent pKa [2] | % EE ([3]; Table 2a) | PDI ([4]; Table 2a) | Diameter (nm) [4, 5] | Avg. hEPO Concentration (mIU/mL)* ± Avg. SD (CD-1 mice) | Avg. hEPO Concentration (mIU/mL) ± Avg. SD (CD-1 mice) |
| --- | --- | --- | --- | --- | --- | --- | --- | --- | --- | --- | --- | --- | --- | --- | --- |
| CCCCCC(CCCCC)CCOC(=O)CCCCCCCN(CCCCCCCC(=O)OCCC(CCCC)CCCC)CCCNc1ncccc1N [Compound 14] | 1.00 | 6.808 to 6.931 | 94.4% | 98.6% | 184.7 nm | 0.366 | 111.7 nm | 0.282 | – | – | – | – | – | 5.96E+05 ± 9.17E+03 mIU/mL | – |
| CCCCCCCC(CCCCCCC)OC(=O)CCCCCCCN(CCCCCCCC(=O)OCCC(CCCC)CCCC)CCCNc1n[s+]([O-])nc1NC (centres unmarked) [Compound 15] | – | – | – | 97.2% | – | – | 74.2 nm | 0.212 | 0.94 | 6.761 | 96.6% | 0.128 | 76.4 nm | – | 3.74E+06 ± 1.61E+05 mIU/mL |
| CCCCCCCC(CCCCCCC)OC(=O)CCCCCCCN(CCCCCCCC(=O)OCCC(CCCC)CCCC)CCCNc1noc(N)n1 [Compound 16] | 1.19 | 6.344 to 6.479 | 98.2% | 97.7% | 70.9 nm | 0.118 | 56.8 nm | 0.113 | – | – | – | – | – | 6.19E+05 ± 1.05E+04 mIU/mL | – |
| CCCCCCCC(CCCCCCC)OC(=O)CCCCCCCN(CCCCCCCC(=O)OCCC(CCCC)CCCC)CCCNS(=O)(=O)CCOC [Compound 17] | – | – | – | 93.5% | – | – | 90 nm | 0.129 | 1.02 | 6.689 | 77.1% | 0.128 | 89.7 nm | – | 1.00E+07 ± 2.34E+05 mIU/mL |
| CCCCCCCC(CCCCCCC)OC(=O)CCCCCCCN(CCCCCCCC(=O)OCCC(CCCC)CCCC)CCCNC(=O)C1(C)CC1 [Compound 18] | 1.05 | 6.744 to 6.808 | 18.6% | 23.9% | 144.2 nm | 0.207 | 95.9 nm | 0.174 | – | – | – | – | – | 5.45E+06 ± 1.26E+05 mIU/mL | – |
| CCCCCCCC(CCCCCCC)OC(=O)CCCCCCCN(CCCCCCCC(=O)OCCC(CCCC)CCCC)CCCNc1ncccc1N [Compound 21] | 1.18 | 6.685 to 6.778 | 97.9% | 98.4% | 98.9 nm | 0.305 | 92.8 nm | 0.255 | – | – | – | – | – | 8.77E+05 ± 1.73E+04 mIU/mL | – |

Further lines, with some results ahead:

| LNP surface hydrophobicity (N-GP*) [1] | Apparent pKa 95% CI [2] | % EE ([3]; Table 2b) | % EE ([3]; Table 3) | Diameter (nm) ([4]; Table 2b) | PDI ([4]; Table 2b) | Diameter (nm) ([4]; Table 3) | PDI ([4]; Table 3) | Lipid nanoparticle surface hydrophobicity (N-GP*) [1] | Apparent pKa [2] | % EE ([3]; Table 2a) | PDI ([4]; Table 2a) | Diameter (nm) [4, 5] | Compound | Avg. hEPO Concentration (mIU/mL)* ± Avg. SD (CD-1 mice) | Avg. hEPO Concentration (mIU/mL) ± Avg. SD (CD-1 mice) |
| --- | --- | --- | --- | --- | --- | --- | --- | --- | --- | --- | --- | --- | --- | --- | --- |
| 1.00 | 6.572 to 6.671 | 77.0% | 94.5% | 86.4 nm | 0.187 | 84.5 nm | 0.129 | 1.00 | 6.551 | 77.2% | 0.127 | 82.8 nm | CCCCCCCC(CCCCCCC)OC(=O)CCCCCCCN(CCCCCCCC(=O)OCCC(CCCC)CCCC)CCCNS(=O)(=O)CC [Compound 19] | – | 1.36E+07 ± 2.52E+05 mIU/mL |
| 1.00 | 6.441 to 6.526 | 84.0% | 87.5% | 76.7 nm | 0.132 | 66 nm | 0.106 | – | – | – | – | – | CCCCCCCC(CCCCCCC)OC(=O)CCCCCCCN(CCCCCCCC(=O)OCCC(CCCC)CCCC)CCCNS(=O)(=O)Cc1ccon1 [Compound 20] | 5.30E+06 ± 1.59E+05 mIU/mL | – |
| – | – | – | 97.2% | – | – | 83.4 nm | 0.195 | 1.03 | 6.895 | 95.6% | 0.104 | 78.3 nm | CCCCCC(CCCCC)CCOC(=O)CCCCCCCN(CCCCCCCC(=O)OCCC(CCCCC)CCCCC)CCCNc1n[s+]([O-])nc1NC (centres unmarked) [Compound 22] | – | 7.14E+06 ± 1.53E+05 mIU/mL |
| 0.95 | 6.511 to 6.611 | 98.1% | 96.4% | 87.2 nm | 0.181 | 62.7 nm | 0.144 | – | – | – | – | – | CCCCCC(CCCCC)CCOC(=O)CCCCCCCN(CCCCCCCC(=O)OCCC(CCCCC)CCCCC)CCCNc1noc(N)n1 [Compound 23] | 1.17E+06 ± 1.91E+04 mIU/mL | – |
| – | – | – | 95.4% | – | – | 93.8 nm | 0.17 | 1.05 | 6.725 | 82.9% | 0.112 | 87.9 nm | CCCCCC(CCCCC)CCOC(=O)CCCCCCCN(CCCCCCCC(=O)OCCC(CCCCC)CCCCC)CCCNS(=O)(=O)CCOC [Compound 24] | – | 8.30E+06 ± 1.36E+05 mIU/mL |
